In patent US20020183384A1, “Methods of treating nuclear factor-kappa B mediated diseases and disorders” (priority 2001, published 2002):
Counter-ions that a name gives are not always drawn.

test system: NF-κB mediated transcription; experiment: NF-κB driven β-lactamase reporter assay in ECV-304 NF-κB.βlaZ cells (AURORA CCF2 fluorescence); format: cell-based, human; conditions: 10 μM compound; ECV-304 NF-κB.βlaZ cells stimulated with 10 ng/mL TNF-α or 100 pg/mL IL-1β, 6 hours at 37° C.; inhibition of maximum blue/green ratio
Source text: Introduction: Described below is an in vitro, cell-based, high throughput screening assay that reliably identifies inhibitors of NF-κB mediated transcription.
The assay takes advantage of AURORA (Aurora Bioscience Corporation, La Jolla, Calif.) fluorescence technology. Endothelial cell vein-304 (ECV-304) cells, an endothelial-like immortalized cell type, may be stably transfected with a plasmid vector containing the cDNA for the enzyme β-lactamase (under the control of a basal promoter, Stratagene pNFκB-luc vector) and 5 copies of an human immunodeficiency virus-1 (HIV-1) NF-κB binding site. ECV-304 cells are described by Takahashi K. et al. in Spontaneous Transformation and Immobilization of Human Endothelial Cells, In Vitro Cell. Dev. Biol. 1990;25:265-274. Activation of NF-κB in ECV-304 by cytokines such as TNF-α or interleuken-1 beta (IL-1β) results in the production of β-lactamase, which cleaves a green fluorescent substrate (excitation/emission wavelengths 395 nm1530 nm) to yield a blue fluorescent product (excitation/emission wavelengths 395 nm/460 nm). Visually, the uncleaved green fluorescent substrate is sequestered intracellularly and emits green fluorescence, while the cleaved product emits blue fluorescence. Fluorescence is quantitated spectrophotometrically, and the spectral intensity of blue fluorescence versus green fluorescence can be used to calculate the degree of activation of NF-κB.
The assay was performed as outlined here and described in detail below. ECV-304 cells permanently transfected with the NF-κB driven β-lactamase gene (ECV-304 NF-κB.βlaZ) were plated in clear-bottom, black 96-well plates (1.25×10^4 cells/well) in media-199 (M-199) media containing 2% fetal bovine serum (FBS). […] The AURORA fluorescent disclosing reagent was then added. After one additional hour, the plates were read in a fluorometer at the blue 395 nm/460 nm (excitation/emission) and green 395 nm/530 nm wavelengths. Then the blue/green emission ratio was calculated. […] An IC50 for said sulfonylaminocarbonyl derivative was determined from a dose-response curve. This assay was designed to be optionally run in either high or low throughput screening modes.
Five copies of the HIV-1 NF-κB binding site (5′-[…]-3′) along with a TATA box were inserted into the EcorRI/BamHI sites of plasmid pMCRBlaZ to create plasmid p5×KBBlaZ, which procedure is illustrated in Scheme 1 below. [formula]
Cells were selected for antibiotic resistance with Zeocin for approximately 2 weeks. After the stable population had been expanded to a significant number of cells, it was stimulated with IL-1β and stained with AURORA CCF2 dye, a membrane permeant, intracellularly-trapped, fluorescent substrate. Cells that fluoresced blue (indicating a positive response of the NF-κB/β-lactamase reporter to stimulation by IL-1β) in the stimulated/stained population were then sorted by flow cytometry into a pool. The pool was expanded and stained with CCF2, and then the cells that fluoresced green from this unstimulated population (indicating a low background of the NF-κB/β-lactamase reporter construct) were cloned by flow cytometry after adding 1 cell per well in 96-well plates. Clones were allowed to expand. Each cloned cell line was then examined for fold stimulation after stimulation with IL-1β using a CCF2 reporter assay, and these stimulated cells were compared to unstimulated cells.
Cells: ECV-304 NF-κB β-Lactamase clone 1E8
Inhibitors: Prepared stock solutions of aminosulfonyl derivatives at 10 mM concentration in DMSO;
c) Added 10 μL of B into appropriate well in assay plate (the final concentration of drug is 10 μM), and […]

Q: How did the “Percent Inhibition at 10 μM” value turn out when `CC(C)c1cccc(C(C)C)c1NC(=O)NS(=O)(=O)N(CC1CCCO1)CC1CCCO1` (stereo not drawn) [Example 41, N-[2,6-bis(1-methylethyl)phenyl]-N′-[[bis[(tetrahydro-2-furanyl)methyl]amino]sulfonyl]-urea,] was run?
A: The value was less than 10%.

same assay, conditions: Homo sapiens, ECV-304, 6 h, 10 μM compound; ECV-304 NF-κB.βlaZ cells stimulated with 10 ng/mL TNF-α or 100 pg/mL IL-1β, 6 hours at 37° C.; inhibition of maximum blue/green ratio; read-out: Percent Inhibition at 10 μM

Q: `CC(C)c1cccc(C(C)C)c1NS(=O)(=O)NC(=O)N(Cc1ccccc1)Cc1ccccc1` [Example 29, N′-[[[2,6-bis(1-methylethyl)phenyl]amino]sulfonyl]-N,N-bis(phenylmethyl)-urea] was tested. Which inhibition at 10 µM did it give?
A: Its inhibition at 10 µM is 38.5%.

Q: Which inhibition at 10 µM does the source give for `CC(C)c1cccc(C(C)C)c1NC(=O)NS(=O)(=O)N1CCC(c2ccccc2)CC1` [Example 35, N-[2,6-bis(1-methylethyl)phenyl]-N′-[(4-phenyl-1-piperidinyl)-sulfonyl]-urea] here?
A: Its inhibition at 10 µM is less than 10%.

Q: How did the inhibition at 10 µM turn out when `CCCCCCN(CCCCCC)S(=O)(=O)NC(=O)Nc1c(C(C)C)cccc1C(C)C` [Example 36, N-[2,6-bis(1-methylethyl)phenyl]-N′-[(dihexylamino)sulfonyl]-urea] was run?
A: Its inhibition at 10 µM is 51.2%.

Q: How did the inhibition at 10 µM turn out when `CC(C)c1cccc(C(C)C)c1NC(=O)NS(=O)(=O)N(CCCN(C)C)CCCN(C)C` [Example 37, N-[[bis[3-(dimethylamino)propyl]amino]sulfonyl]-N′-[2,6-bis(1-methylethyl)phenyl]-urea] was run?
A: Its inhibition at 10 µM is less than 10%.

Q: For `CCCCCCNS(=O)(=O)NC(=O)Nc1c(C(C)C)cccc1C(C)C` [Example 39, N-[2,6-bis(1-methylethyl)phenyl]-N′-[(hexylamino)sulfonyl]-urea], which inhibition at 10 µM is on record?
A: The inhibition at 10 µM was less than 10%.

Q: For `CCN(CC)S(=O)(=O)NC(=O)Nc1c(C(C)C)cccc1C(C)C` [Example 44, Urea, N-[2,6-bis(1-methylethyl)phenyl]-N′-[(diethylamino)sulfonyl]-], which inhibition at 10 µM is on record?
A: The inhibition at 10 µM was less than 10%.

Q: With `CCCCCCCCN(C)S(=O)(=O)NC(=O)Nc1c(C(C)C)cccc1C(C)C` [Example 45, Urea, N-[2,6-bis(1-methylethyl)phenyl]-N′-[(methyloctylamino)sulfonyl]-] as the molecule, how does the inhibition at 10 µM read?
A: The inhibition at 10 µM was 53.5%.

same assay, conditions: Homo sapiens; 10 μM compound; ECV-304 NF-κB.βlaZ cells stimulated with 10 ng/mL TNF-α or 100 pg/mL IL-1β, 6 hours at 37° C.; inhibition of maximum blue/green ratio; read-out: Percent Inhibition at 10 μM

Q: Which inhibition at 10 µM does the source give for `CC(C)c1cccc(C(C)C)c1OC(=O)NS(=O)(=O)N(c1ccccc1)c1ccccc1` [Example 26, Carbamic acid, [(diphenylamino)sulfonyl]-, 2,6-bis(1-methylethyl)phenyl ester] here?
A: Its inhibition at 10 µM is 32.8%.

Q: For `CCCCN(CCCC)S(=O)(=O)NC(=O)Oc1c(C(C)C)cccc1C(C)C` [Example 27, Carbamic acid, [(dibutylamino)sulfonyl]-, 2,6-bis(1-methylethyl)phenyl ester], which inhibition at 10 µM is on record?
A: The inhibition at 10 µM was 26.1%.

Q: For `CC(C)c1cccc(C(C)C)c1OC(=O)NS(=O)(=O)Oc1c(C(C)C)cccc1C(C)C` [Example 28, Carbamic acid, [[2,6-bis(1-methylethyl)phenoxy]sulfonyl]-, 2,6-bis(1-methylethyl)phenyl ester], which inhibition at 10 µM is on record?
A: The inhibition at 10 µM was 30.2%.

Q: How did the inhibition at 10 µM turn out when `CCCCN(CCCC)S(=O)(=O)NC(=O)Oc1c(C(C)(C)C)cc(C)cc1C(C)(C)C` [Example 30, Carbamic acid, [(dibutylamino)sulfonyl]-, 2,6-bis(1,1-dimethylethyl)-4-methylphenyl ester] was run?
A: Its inhibition at 10 µM is 52%.

Q: How did the inhibition at 10 µM turn out when `CCCCCN(CCCCC)S(=O)(=O)NC(=O)Oc1c(C(C)(C)C)cc(C)cc1C(C)(C)C` [Example 31, Carbamic acid, [(dipentylamino)sulfonyl]-, 2,6-bis(1,1-dimethylethyl)-4-methylphenyl ester] was run?
A: The inhibition at 10 µM was 74%.

Q: `Cc1cc(C(C)(C)C)c(OC(=O)NS(=O)(=O)N(C(C)C)C(C)C)c(C(C)(C)C)c1` [Example 32, Carbamic acid, [[bis(1-methylethyl)amino]sulfonyl]-, 2,6-bis(1,1-dimethylethyl)-4-methylphenyl ester] was tested. Which inhibition at 10 µM did it give?
A: The inhibition at 10 µM was 20.3%.

Q: Which inhibition at 10 µM does the source give for `CCCCCCN(CCCCCC)S(=O)(=O)NC(=O)Oc1c(C(C)(C)C)cc(C)cc1C(C)(C)C` [Example 33, Carbamic acid, [(dihexylamino)sulfonyl]-, 2,6-bis(1,1-dimethylethyl)-4-methylphenyl ester] here?
A: The inhibition at 10 µM was 58.6%.

Q: `CCCCCCNS(=O)(=O)NC(=O)Oc1c(C(C)(C)C)cc(C)cc1C(C)(C)C` [Example 34, Carbamic acid, [(hexylamino)sulfonyl]-, 2,6-bis(1,1-dimethylethyl)-4-methylphenyl ester] was tested. Which inhibition at 10 µM did it give?
A: The inhibition at 10 µM was 24.3%.

Q: For `Cc1cc(C(C)(C)C)c(OC(=O)NS(=O)(=O)N(C)CCc2ccccc2)c(C(C)(C)C)c1` [Example 38, Carbamic acid, [[methyl(2-phenylethyl)amino]sulfonyl]-, 2,6-bis(1,1-dimethylethyl)-4-methylphenyl ester], which inhibition at 10 µM is on record?
A: The inhibition at 10 µM was 31.5%.

Q: With `Cc1cc(C(C)(C)C)c(OC(=O)NS(=O)(=O)N(CCCN(C)C)CCCN(C)C)c(C(C)(C)C)c1` [Example 40, Carbamic acid, [[bis[3-(dimethylamino)propyl]amino]sulfonyl]-, 2,6-bis(1,1-dimethylethyl)-4-methylphenyl ester] as the molecule, how does the inhibition at 10 µM read?
A: Its inhibition at 10 µM is less than 10%.

Q: How did the inhibition at 10 µM turn out when `Cc1cc(C(C)(C)C)c(OC(=O)NS(=O)(=O)N(C)CCc2ccccn2)c(C(C)(C)C)c1` [Example 42, Carbamic acid, [[methyl[2-(2-pyridinyl)ethyl]amino]sulfonyl]-, 2,6-bis(1,1-dimethylethyl)-4-methylphenyl ester, monohydrochloride] was run?
A: The inhibition at 10 µM was less than 10%.

Q: With `CCCCCCCCN(C)S(=O)(=O)NC(=O)Oc1c(C(C)(C)C)cc(C)cc1C(C)(C)C` [Example 43, Carbamic acid, [(methyloctylamino)sulfonyl]-, 2,6-bis(1,1-dimethylethyl)-4-methylphenyl ester] as the molecule, how does the inhibition at 10 µM read?
A: The inhibition at 10 µM was 70.2%.

Q: Which inhibition at 10 µM does the source give for `CCCCCCCCN(CCCCCCCC)S(=O)(=O)NC(=O)Oc1c(C(C)(C)C)cc(C)cc1C(C)(C)C` [Example 46, Carbamic acid, [(dioctylamino)sulfonyl]-, 2,6-bis(1,1-dimethylethyl)-4-methylphenyl ester] here?
A: Its inhibition at 10 µM is 34.8%.

Q: How did the inhibition at 10 µM turn out when `COc1cc(C(C)(C)C)c(OC(=O)NS(=O)(=O)NCC(c2ccccc2)c2ccccc2)c(C(C)(C)C)c1` [Example 47, Carbamic acid, [[(2,2-diphenylethyl)amino]sulfonyl]-, 2,6-bis(1,1-dimethylethyl)-4-methoxyphenyl ester] was run?
A: The inhibition at 10 µM was 41.9%.

Q: How did the inhibition at 10 µM turn out when `Cc1cc(C(C)(C)C)c(OC(=O)NS(=O)(=O)Oc2ccccc2)c(C(C)(C)C)c1` [Example 48, Carbamic acid, (phenoxysulfonyl)-, 2,6-bis(1,1-dimethylethyl)-4-methylphenyl ester] was run?
A: The inhibition at 10 µM was 13.8%.

Q: For `CCCCCCOS(=O)(=O)NC(=O)Oc1c(C(C)(C)C)cc(C)cc1C(C)(C)C` [Example 49, Carbamic acid, [(hexyloxy)sulfonyl]-, 2,6-bis(1,1-dimethylethyl)-4-methylphenyl ester], which inhibition at 10 µM is on record?
A: Its inhibition at 10 µM is 22.9%.

Q: How did the inhibition at 10 µM turn out when `COc1cc(C(C)(C)C)c(OC(=O)NS(=O)(=O)Nc2c(C(C)C)cccc2C(C)C)c(C(C)(C)C)c1` [Example 50, Carbamic acid, [[[2,6-bis(1-methylethyl)phenyl]amino]sulfonyl]-, 2,6-bis(1,1-dimethylethyl)-4-methoxyphenyl ester] was run?
A: The inhibition at 10 µM was 39.1%.

Q: Which inhibition at 10 µM does the source give for `CCCCCCCCCCCCOS(=O)(=O)NC(=O)Oc1c(C(C)(C)C)cc(C)cc1C(C)(C)C` [Example 51, Carbamic acid, [(dodecyloxy)sulfonyl]-, 2,6-bis(1,1-dimethylethyl)-4-methylphenyl ester] here?
A: Its inhibition at 10 µM is 47.2%.

Q: With `CCCCCCCCCCN(CCCCCCCCCC)S(=O)(=O)NC(=O)Oc1c(C(C)(C)C)cc(C)cc1C(C)(C)C` [Example 52, Carbamic acid, [(didecylamino)sulfonyl]-, 2,6-bis(1,1-dimethylethyl)-4-methylphenyl ester] as the molecule, how does the inhibition at 10 µM read?
A: Its inhibition at 10 µM is less than 10%.
